Results as given in patent US20260224577A1, “METHODS OF TREATING HEART FAILURE WITH VIBEGRON” (SUMITOMO PHARMA CO., LTD., priority 2021, published 2026).

Columns and labels:
[1] = molecular target: T1, β3-adrenergic receptor (Homo sapiens, UniProt P13945); assay: Functional cellular cAMP (HTRF) assay, HEK293 cells expressing β3-ARs; type: cell-based
T1 construct: expressed in transfected cells; host or cells: HEK293
Protocol: (§1) The potency and maximal effect of vibegron and mirabegron for β3-adrenergic receptors and the selectivity for each […] receptor were determined. Functional cellular assays for vibegron and mirabegron activity were performed using Chinese hamster ovary (CHO) cells expressing β1- or β2-ARs and human embryonic kidney (HEK) 293 cells expressing β3-ARs. Cells were incubated with vibegron, mirabegron, or the appropriate control (isoproterenol for β1 and β3, procaterol for β2). Responses were quantified using homogeneous time-resolved fluorescence of cyclic adenosine monophosphate. Half-maximal effective concentration (EC50) and maximum response (Emax) values were determined by nonlinear least-squares regression analysis.

[2] = molecular target: T2, β1-adrenergic receptor (Homo sapiens, UniProt P08588); assay: Functional cellular cAMP (HTRF) assay, CHO cells expressing β1-ARs; type: cell-based; settings: relative to isoproterenol
T2 construct: expressed in transfected cells; host or cells: CHO
T2 sequence (P08588 whole entry): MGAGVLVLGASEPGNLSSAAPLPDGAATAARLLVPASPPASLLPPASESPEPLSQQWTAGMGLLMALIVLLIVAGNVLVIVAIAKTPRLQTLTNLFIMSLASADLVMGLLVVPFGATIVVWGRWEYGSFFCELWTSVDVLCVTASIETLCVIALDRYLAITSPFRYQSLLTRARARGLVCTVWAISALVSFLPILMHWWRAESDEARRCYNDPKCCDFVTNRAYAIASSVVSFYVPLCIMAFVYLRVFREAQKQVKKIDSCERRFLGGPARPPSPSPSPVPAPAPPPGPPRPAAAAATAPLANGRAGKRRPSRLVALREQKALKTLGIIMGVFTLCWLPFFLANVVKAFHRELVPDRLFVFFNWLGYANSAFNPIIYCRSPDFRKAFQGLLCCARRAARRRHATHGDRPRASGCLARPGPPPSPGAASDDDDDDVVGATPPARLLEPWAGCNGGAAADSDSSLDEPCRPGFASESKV
Protocol: as §1

T1 sequence (P13945 whole entry): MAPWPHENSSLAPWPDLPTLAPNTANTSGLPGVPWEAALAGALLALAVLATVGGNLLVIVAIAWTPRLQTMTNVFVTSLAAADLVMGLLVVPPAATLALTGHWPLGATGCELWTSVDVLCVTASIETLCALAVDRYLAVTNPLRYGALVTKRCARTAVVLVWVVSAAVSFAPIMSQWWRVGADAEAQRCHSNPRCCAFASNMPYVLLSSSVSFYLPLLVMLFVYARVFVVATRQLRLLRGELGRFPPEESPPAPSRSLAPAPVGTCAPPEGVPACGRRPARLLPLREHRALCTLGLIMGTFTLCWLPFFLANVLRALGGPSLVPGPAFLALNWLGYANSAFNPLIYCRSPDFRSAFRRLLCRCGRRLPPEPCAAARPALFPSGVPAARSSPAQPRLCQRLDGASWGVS

## O=C(Nc1ccc(C[C@@H]2CC[C@H]([C@H](O)c3ccccc3)N2)cc1)[C@@H]1CCc2nccc(=O)n21 [Vibegron, (6S)—N-[4-[[(2S,5R)-5-[(R)-hydroxy(phenyl)methyl]pyrrolidin-2-yl]methyl]phenyl]-4-oxo-7,8-dihydro-6H-pyrrolo[1,2-a]pyrimidine-6-carboxamide]
[1]; 10 μM, HEK293 cells
  β3-adrenergic activity relative to isoproterenol (% Activity): 104%
[1]; HEK293, estimated by nonlinear least-squares regression, read-out: Emax (maximum response) at the β3-AR
  Emax: 99.2%
[1]; HEK293 cells expressing β3-ARs, cAMP, read-out: Mean (SEM) EC50 at the β3-AR
  EC50: 2.13 nM
[1]; estimated by nonlinear least-squares regression
  Emax (maximum response) at the β3-AR: ~100%
[1]; ratio of mean EC50 values
  Potency at activating β3-ARs relative to mirabegron: approximately 5 times
[2]
  β1-adrenergic activity (% Activity): 0%
